This is an account of results in ChEMBL document CHEMBL4052632 (Eur J Med Chem, 2017).

Usually IC50 stands for the concentration at which inhibition is half-maximal. Higher therefore signals lower potency. A word on the inhibition: it is how much of the control response was suppressed.

Assay [1] addresses T1, Glycogen synthase kinase-3 beta (Homo sapiens, UniProt P49841). In words: biochemical.
Description: Inhibition of recombinant N-terminal His6-tagged human GSK3beta H350L mutant expressed in baculovirus infected Sf21 insect cells using polypeptide GS-2 as substrate after 30 mins in presence of ATP by kinase-glo luminescence assay
Assay [2] relates to A2780. In words: Antiproliferative activity against human A2780 cells measured after 48 hrs by MTT assay. It counts as functional, cell-based. Conditions: A2780, 48 h. On the technique in general: Tetrazolium assays rely on reduction of a dye to a coloured formazan, in cell work by metabolically active cells.
The nature of assay [3]: cells. As to conditions: Homo sapiens, OVCA433, 48 h.
Description: Antiproliferative activity against human OVCA433 cells measured after 48 hrs by MTT assay
The target in assay [4] is T1, Glycogen synthase kinase-3 beta.
Description: Inhibition of GSK3beta (unknown origin)
Assay [5] concerns Glycogen synthase kinase-3 beta (Homo sapiens), P49841 [UNDEFINED MUTATION]. Kind of assay: Non-competitive inhibition of recombinant N-terminal His6-tagged human GSK3beta H350L mutant expressed in baculovirus infected Sf21 insect cells at 6.25 to 12.5 uM in presence of constant levels of ATP and varying GS-2 substrate concentration after 30 mins by double reciprocal plot analysis.

Assay [6] shares this test system. In words: Non-competitive inhibition of recombinant N-terminal His6-tagged human GSK3beta H350L mutant expressed in baculovirus infected Sf21 insect cells at 6.25 to 12.5 uM in presence of varying levels of ATP and constant GS-2 substrate concentration after 30 mins by double reciprocal plot analysis.
The target of assay [7] is Receptor tyrosine-protein kinase erbB-4 (Homo sapiens) (UniProt Q15303). In words: Inhibition of ErbB4 (unknown origin) using poly (Glu, Tyr) 4:1 as substrate after 1 hr by ELISA relative to control. As to conditions: concentration not given here. On the technique in general: ELISA stands for enzyme-linked immunosorbent assay.
The test system of assay [8] is Glycogen synthase kinase-3 beta (Homo sapiens), P49841 [UNDEFINED MUTATION]. In words: Non-competitive inhibition of recombinant N-terminal His6-tagged human GSK3beta H350L mutant expressed in baculovirus infected Sf21 insect cells at 20 to 50 uM in presence of varying levels of ATP and constant GS-2 substrate concentration after 30 mins by double reciprocal plot analysis.

Assay [9] shares this test system. Kind of assay: Non-competitive inhibition of recombinant N-terminal His6-tagged human GSK3beta H350L mutant expressed in baculovirus infected Sf21 insect cells at 20 to 50 uM in presence of constant levels of ATP and varying GS-2 substrate concentration after 30 mins by double reciprocal plot analysis.

Molecules are shown by their SMILES. Active and inactive are the calls of the source. No cut-off for these calls is given here.

T1 sequence (P49841 whole entry): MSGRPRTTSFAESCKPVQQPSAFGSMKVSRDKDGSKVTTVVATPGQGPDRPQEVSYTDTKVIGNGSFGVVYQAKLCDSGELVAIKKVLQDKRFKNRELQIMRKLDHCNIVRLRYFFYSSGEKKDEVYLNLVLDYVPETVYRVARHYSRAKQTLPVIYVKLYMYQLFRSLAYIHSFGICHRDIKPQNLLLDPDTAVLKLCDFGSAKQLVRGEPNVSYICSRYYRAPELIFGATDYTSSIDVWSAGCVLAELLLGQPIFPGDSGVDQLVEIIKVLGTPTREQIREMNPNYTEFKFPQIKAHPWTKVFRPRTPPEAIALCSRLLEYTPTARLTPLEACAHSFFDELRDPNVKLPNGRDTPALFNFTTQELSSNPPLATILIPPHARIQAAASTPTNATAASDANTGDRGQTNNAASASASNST
Glycogen synthase kinase-3 beta (Homo sapiens), P49841 [UNDEFINED MUTATION], sequence (P49841 whole entry, looked up, stated change not applied): as the sequence (P49841 whole entry) above
Receptor tyrosine-protein kinase erbB-4 (Homo sapiens), sequence (Q15303 whole entry): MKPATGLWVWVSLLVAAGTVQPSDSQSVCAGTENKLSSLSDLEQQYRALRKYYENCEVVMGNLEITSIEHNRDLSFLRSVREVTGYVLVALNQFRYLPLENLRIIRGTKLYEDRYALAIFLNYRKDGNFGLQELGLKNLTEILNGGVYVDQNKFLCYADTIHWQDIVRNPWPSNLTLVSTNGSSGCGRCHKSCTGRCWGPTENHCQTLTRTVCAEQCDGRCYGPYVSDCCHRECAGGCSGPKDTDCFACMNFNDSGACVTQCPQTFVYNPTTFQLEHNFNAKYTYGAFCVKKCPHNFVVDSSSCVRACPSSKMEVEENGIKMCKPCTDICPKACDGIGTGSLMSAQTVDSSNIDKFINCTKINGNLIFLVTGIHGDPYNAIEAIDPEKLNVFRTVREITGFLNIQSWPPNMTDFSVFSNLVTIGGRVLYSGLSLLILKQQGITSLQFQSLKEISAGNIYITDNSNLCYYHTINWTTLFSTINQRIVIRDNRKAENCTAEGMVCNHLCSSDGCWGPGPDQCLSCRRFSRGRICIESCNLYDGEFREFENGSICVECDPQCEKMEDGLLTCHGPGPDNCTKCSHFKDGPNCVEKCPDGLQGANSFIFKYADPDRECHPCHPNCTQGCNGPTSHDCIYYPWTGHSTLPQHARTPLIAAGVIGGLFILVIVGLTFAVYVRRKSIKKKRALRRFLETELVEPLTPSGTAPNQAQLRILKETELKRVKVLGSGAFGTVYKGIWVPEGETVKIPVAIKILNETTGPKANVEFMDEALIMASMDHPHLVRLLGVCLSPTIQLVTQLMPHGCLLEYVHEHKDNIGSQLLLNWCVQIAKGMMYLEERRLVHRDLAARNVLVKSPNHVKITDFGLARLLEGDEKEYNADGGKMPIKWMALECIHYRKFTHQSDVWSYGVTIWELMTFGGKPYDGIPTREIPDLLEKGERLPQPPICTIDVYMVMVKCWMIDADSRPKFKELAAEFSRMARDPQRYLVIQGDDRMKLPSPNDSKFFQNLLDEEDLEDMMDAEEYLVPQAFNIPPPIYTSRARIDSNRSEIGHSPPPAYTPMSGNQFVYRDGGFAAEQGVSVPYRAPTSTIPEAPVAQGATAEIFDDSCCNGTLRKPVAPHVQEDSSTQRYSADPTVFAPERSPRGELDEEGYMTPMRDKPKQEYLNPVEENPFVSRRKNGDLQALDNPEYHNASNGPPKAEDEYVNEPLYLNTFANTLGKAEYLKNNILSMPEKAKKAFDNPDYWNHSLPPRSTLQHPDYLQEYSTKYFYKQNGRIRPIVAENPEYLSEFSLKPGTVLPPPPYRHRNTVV

Take `CCCCCCCCCCCCCC(=O)NC1CCN(C(=O)C2Sc3ccccc3N(CC)C2=O)CC1` (configuration not stated): the 50% inhibitory concentration (IC50) in assay [1] came out at 33.4 µM; in assay [2], 9.1 µM; in [3], 26.2 µM.
As for `O=C1Cc2cc(Br)ccc2/C1=c1/[nH]c2ccccc2/c1=C\O`, the concentration for half-maximal inhibition (IC50) in [4] was determined as 0.005 µM.
For `CCCCCCCCCCC(=O)N1CCC(NC(=O)C2Sc3ccccc3N(CC)C2=O)CC1` (configuration not stated), the figures for the IC50 in [1], in [2] and in assay [3] were 44.3 µM, 16.6 µM and 28.2 µM, respectively.
For the molecule `CCCCCCCCCCCCCCCC(=O)N1CCN(C(=O)C2Sc3ccccc3N(CC)C2=O)CC1` (configuration not stated), the 50% inhibitory concentration (IC50) amounted to 8.7 µM in assay [1], 13.2 µM in assay [2] and 15.4 µM in assay [3]. The inhibition entry in [5] and in assay [6] was “Active” in each case.
For the molecule `CCCCCCCCCC(=O)N1CCN(C(=O)C2Sc3ccccc3N(CC)C2=O)CC1` (configuration not stated), the figures for the IC50 in assay [1], in [2] and in [3] were 51.7 µM, 36 µM and 89.5 µM, respectively.
The like results for `CCCCCCCCCCCCCCC(=O)N1CCC(NC(=O)C2Sc3ccccc3N(CC)C2=O)CC1` (configuration not stated) were, in that order, 17.9 µM, 9 µM and 17.5 µM.
On to `CCCCCCCCCCCC(=O)NNC(=O)C1Sc2ccccc2N(CC)C1=O` (configuration not stated), for which the values for the concentration for half-maximal inhibition (IC50) in assay [1], in assay [2] and in assay [3] were 11.9 µM, 40.7 µM and more than 100 µM, respectively.
For `CCCCCCCCCC(=O)NC1CCN(C(=O)C2Sc3ccccc3N(CC)C2=O)CC1` (configuration not stated), the values for the 50% inhibitory concentration (IC50) in [1], in [2] and in assay [3] were 68.3 µM, 27.2 µM and 77.4 µM, respectively.
The like results for `CCCCCCCCCCCC(=O)NC1CCN(C(=O)C2Sc3ccccc3N(CC)C2=O)CC1` (configuration not stated) were, in that order, 33.4 µM, 13 µM and 28.4 µM.
On the same counts, the results for `CCCCCCCCCCC(=O)NC1CCN(C(=O)C2Sc3ccccc3N(CC)C2=O)CC1` (configuration not stated) are 45.9 µM, 23.4 µM and 34.4 µM.
The like results for `CCN1C(=O)C(C(=O)N2CCC(NC(=O)CCCCCc3ccccc3)CC2)Sc2ccccc21` (configuration not stated) were, in that order, more than 100 µM, 36 µM and more than 100 µM.
For the molecule `CCCCCCCCCCCCCC(=O)N1CCC(NC(=O)C2Sc3ccccc3N(CC)C2=O)CC1` (configuration not stated), the IC50 in assay [1] was 27.3 µM; in assay [2], 13.1 µM; in assay [3] it was 14.9 µM.
The like results for `CCCCCCCCCCCC(=O)N1CCN(C(=O)C2Sc3ccccc3N(CC)C2=O)CC1` (configuration not stated) were, in that order, 23.2 µM, 16.6 µM and 19.5 µM.
The like results for `CCCCCCCCCCCCNC(=O)C1Sc2ccccc2N(CC)C1=O` (configuration not stated) were, in that order, 22.9 µM, 15.5 µM and more than 100 µM.
Consider `CCCCCCCCCCCCCCCC(=O)N1CCC(NC(=O)C2Sc3ccccc3N(CC)C2=O)CC1` (configuration not stated), for which the figures for the IC50 in assay [1], in assay [2] and in assay [3] were 18.6 µM, 11.4 µM and 30.4 µM, respectively.
On the same counts, the results for `CCCCCCCCC(=O)N1CCC(NC(=O)C2Sc3ccccc3N(CC)C2=O)CC1` (configuration not stated) are more than 100 µM, 24.7 µM and 90.6 µM.
The like results for `CCCCCCCCCC(=O)N1CCC(NC(=O)C2Sc3ccccc3N(CC)C2=O)CC1` (configuration not stated) were, in that order, 74.9 µM, 23.6 µM and 47.7 µM.
Turning to `CCCCCCCCCCCCCCCCC(=O)NC1CCN(C(=O)C2Sc3ccccc3N(CC)C2=O)CC1` (configuration not stated), the values for the 50% inhibitory concentration (IC50) in assay [1], in assay [2] and in assay [3] were 46.7 µM, 4.7 µM and more than 100 µM, respectively.
In the case of `CN(C)C/C=C/C(=O)Nc1cc2c(Nc3ccc(F)c(Cl)c3)ncnc2cc1O[C@H]1CCOC1`, in assay [7], the inhibition came to 98.2%.
Take `CCCCCCCCC(=O)N1CCN(C(=O)C2Sc3ccccc3N(CC)C2=O)CC1` (configuration not stated): the IC50 is more than 100 µM in assay [1], 34.1 µM in assay [2] and 81.8 µM in [3].
With `CCCCCCCCCCCCCCCC(=O)NC1CCN(C(=O)C2Sc3ccccc3N(CC)C2=O)CC1` (configuration not stated), the results for the IC50 in assay [1], in assay [2] and in [3] were 11.7 µM, 3.5 µM and 69.8 µM, respectively. Besides, the inhibition result in assay [8] and in assay [9] was “Active” in each case.
Regarding `CCCCCCCCCCCCCC(=O)N1CCN(C(=O)C2Sc3ccccc3N(CC)C2=O)CC1` (configuration not stated), the IC50 stood at 18.9 µM in [1], 16.7 µM in [2] and 16.9 µM in assay [3].
The like results for `CCCCCCCCCCC(=O)N1CCN(C(=O)C2Sc3ccccc3N(CC)C2=O)CC1` (configuration not stated) were, in that order, 27.1 µM, 21.8 µM and 22.9 µM.
On the same counts, the results for `CCCCCCCCC(=O)NC1CCN(C(=O)C2Sc3ccccc3N(CC)C2=O)CC1` (configuration not stated) are more than 100 µM, 33.1 µM and more than 100 µM.
On the same counts, the results for `CCCCCCCCCCCC(=O)N1CCC(NC(=O)C2Sc3ccccc3N(CC)C2=O)CC1` (configuration not stated) are 29.7 µM, 16.6 µM and 26.8 µM.
As for `Cn1sc(=O)n(Cc2ccccc2)c1=O`, the concentration for half-maximal inhibition (IC50) was determined as 20 µM in assay [2] and 15.3 µM in assay [3].
